Measured values taken from publication PMC5489047, “Molecular glues for manipulating enzymes: trypsin inhibition by benzamidine-conjugated molecular glues” (Chemical Science, 2015).

Legend:
trypsin [1] = target: T1, trypsin (Sus scrofa, UniProt P00761); assay: Circular dichroism (CD) spectral titration of trypsin, Hill equation fit; assay type: binding; settings: trypsin 5 μM, CD at 237 nm, 25 °C, Tris–HCl buffer (50 mM Tris–HCl, 10 mM CaCl2, pH 8.0), read-out: association constant (K assoc) with trypsin (converted)
T1 construct: purchased Wako; host or cells: porcine pancreas (natural source)
Excerpt: We first investigated the effect of conjugation of molecular glues to BA on the binding affinity for trypsin. Trypsin is known to alter its conformation upon interaction with metal ions,[24] polymers[25] and proteins,[26] resulting in circular dichroism (CD) spectral changes. Upon mixing with Glue10–BA, trypsin also changed its CD spectrum. […] According to the reported method,[27],[28] we estimated the association constant (K assoc) of Glue10–BA with trypsin to be 5.5 × 10^5 M^–1 by fitting the fractions of bound trypsin (Fig. 3, red) to the Hill equation.[27],[28] […]
Fig. 3 Circular dichroism (CD) spectral titration profiles of trypsin (5 μM) at 237 nm with molecular glues Glue29–BA (brown; 0–2.5 μM), Glue10–BA (red; 0–7 μM), Glue10–Ph (green; 0–12 μM) and ^mGlue27–BA (purple; 0–50 μM), together with reference TEG–BA (blue; 0–200 μM), at 25 °C in Tris–HCl buffer (50 mM Tris–HCl, 10 mM CaCl2, pH 8.0). The fractions of bound trypsin were calculated from (I – I 0)/(I sat – I 0), where I 0, I and I sat represent the CD intensities before titration, observed with titrants and at the saturation point, respectively. […]
The association constants (K assoc) were calculated based on the Hill equation by plotting the fractions of bound trypsin versus the concentrations of a titrant. […]

trypsin [2] = target: T1, trypsin; assay: Trypsin activity assay (TAME hydrolysis, absorption at 247 nm); assay type: biochemical; settings: trypsin 20 nM, TAME 1 mM
Excerpt: Trypsin hydrolyses peptide linkages at the carboxyl side of lysine and arginine residues.[29] As already described in Fig. 2a, this protease activity is inhibited by BA.[10] Considering the exceptionally high affinity of Glue29–BA for trypsin, we expected that this BA-appended molecular glue might be the best inhibitor among those listed in Fig. 1. However, as observed by dynamic light scattering (DLS; Fig. S12 ^†), trypsin/Glue29–BA, in contrast with other complexes such as trypsin/Glue10–BA and trypsin/Glue10–Ph, tends to form large aggregates (>200 nm), most likely due to the formation of physical crosslinks between its excessively long glue moiety and trypsin. […] We presume that the poor conformational flexibility of the in-chain Gu^+ units in the glue moiety hinders the ability of the conjugated BA terminus to properly block the substrate-binding site of trypsin. […]
To a Tris–HCl buffer (50 mM Tris–HCl, 10 mM CaCl2, pH 8.0) solution of trypsin (20 nM) was added a Tris–HCl buffer solution of TEG–BA, and the mixture was incubated at 25 °C for 1 min. […] The trypsin activity was determined using pseudo-first order reaction kinetics and normalized to that of untreated trypsin. The trypsin activities in the presence of Gluen–BA, ^mGluen–BA and Gluen–Ph were likewise evaluated.

T1 sequence (P00761 9-231): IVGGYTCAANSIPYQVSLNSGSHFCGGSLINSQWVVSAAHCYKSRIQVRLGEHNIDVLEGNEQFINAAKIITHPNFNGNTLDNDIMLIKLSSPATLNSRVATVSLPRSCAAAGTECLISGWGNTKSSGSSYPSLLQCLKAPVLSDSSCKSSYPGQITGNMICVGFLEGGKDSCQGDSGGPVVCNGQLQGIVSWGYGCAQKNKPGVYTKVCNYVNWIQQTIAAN

[N-]=[N+]=NCCOCCOCCOCCNC(=O)CCCC(=O)Nc1ccc(C(=N)N)cc1 [TEG–BA]
Kd (trypsin [1]): 62.5 µM | inhibition of TAME hydrolysis by trypsin at 10 μM (trypsin [2]; 10 μM compound): did not exhibit detectable inhibition | IC50 (trypsin [2]; 25 °C, Tris–HCl buffer pH 8.0, read-out: half-maximal inhibitory concentration (IC50)): 79 µM
